Data: US12433900B2, “Intravitreal corticosteroid extended release implant and methods of use” (Eyedea Bio, LLC, priority 2021, dated 2025)

Assay: Calculated Octanol Solubility Index (OSI) and Topological Polar Surface Area (TPSA) of the API
Settings: calculated using the log P and maximal aqueous solubility
Excerpt: The interactions between API and complexation agent and/or dispersal medium can be predicted based on the Octanol Solubility Index (OSI) and Topological Polar Surface Area (TPSA) of the API. TPSA is a calculated measure of a molecule's polarity based on the number of polar atoms contained in the molecule. OSI is a measure of compound lipophilicity and can be calculated using the log P and maximal aqueous solubility of the compound by the formula:

Structure (SMILES)	OSI (Octanol Solubility Index)
C[C@@H]1C[C@H]2[C@@H]3CCC4=CC(=O)C=C[C@]4(C)[C@@]3(F)[C@@H](O)C[C@]2(C)[C@@]1(O)C(=O)CO [dexamethasone free base, 9α-fluoro-11β,17α,21-trihydroxy-16α-methylpregna-1,4-diene-3,20-dione]	3.85
C[C@@H]1C[C@H]2[C@@H]3CCC4=CC(=O)C=C[C@]4(C)[C@@]3(F)[C@@H](O)C[C@]2(C)[C@@]1(O)C(=O)COP(=O)(O)O [dexamethasone phosphate]	3.71
CC1(C)O[C@@H]2C[C@H]3[C@@H]4C[C@H](F)C5=CC(=O)C=C[C@]5(C)[C@@]4(F)[C@@H](O)C[C@]3(C)[C@]2(C(=O)CO)O1 [fluocinolone acetonide, 6α,9α-difluoro-11β,16α,17α,21-tetrahydroxypregna-1,4-diene-3,20-dione cyclic 16α,17α-acetal with acetone]	3.48
